According to patent publication US20260184726A1, “HETEROCYCLIC COMPOUNDS AS KINASE INHIBITORS, COMPOSITIONS, AND METHODS OF USE THEREOF” (JS INNOMED HOLDINGS LTD., priority 2022, published 2026):

How the values were obtained:
human RET kinase = biological target: T1, human RET kinase (Homo sapiens, UniProt P07949); assay: RET Kinase Assay (mobility shift assay, ATP at Km); format: biochemical; settings: 23 μM ATP (Km), read-out: RET Enzymatic Activity
T1 construct: purchased Carna 08-159
Protocol: Compounds were tested by Mobility shift assay with ATP concentration at Km. The assay used human RET kinase (Carna 08-159). Test compounds were prepared and diluted in DMSO in 3-fold serial dilutions to 50× of the final testing concentrations. The compounds were then further diluted to 5× by the kinase reaction buffer (50 mM HEPES pH 7.5, 0.0015% Brij-35). The enzymatic reaction for compound testing was performed in a white 384-well polypropylene plate (Corning 3573) with a total reaction volume of 25 μl containing 7 nM RET, 3 μM peptide substrate FAM-P2 (GL Biochem 112394), and 23 μM ATP (Sigma A7699-1G). The assay started with loading RET diluted in kinase reaction buffer to wells, followed by addition of equal volume of 5× compounds for 15-min incubation at the room temperature for pre-treatment. The enzymatic reaction was initiated by addition of mixture of the substrate and ATP prepared in kinase reaction buffer. After incubation at 28° C. for one hour, 25 μl of stopper buffer (a mixture of 100 mM HEPES pH 7.5 buffer, 0.015% Brij-35, 50 mM EDTA and 0.2% of coating reagent 3 (Cliper Lifesciences)). After 30 minutes of incubation at room temperature, the plate was read in a Caliper. Percent of control was calculated as the percentage of compound-treated vs 2% DMSO vehicle-treated. The dose-response curves were generated and the IC50 values were calculated by nonlinear sigmoid curve fitting using XLFit.

human KDR kinase = biological target: T2, human KDR kinase (Homo sapiens, UniProt P35968); assay: KDR Kinase Assay (mobility shift assay, ATP at Km); format: biochemical; settings: 92 μM ATP (Km), read-out: KDR Enzymatic Activity
T2 construct: purchased Carna 08-191
Protocol: Compounds were tested by Mobility shift assay with ATP concentration at Km. The assay used human KDR kinase (Carna 08-191). Test compounds were prepared and diluted in DMSO in 3-fold serial dilutions to 50× of the final testing concentrations. The compounds were then further diluted to 5× by the kinase reaction buffer (50 mM HEPES pH 7.5, 0.0015% Brij-35). The enzymatic reaction for compound testing was performed in a white 384-well polypropylene plate (Corning 3573) with a total reaction volume of 25 μl containing 1.2 nM KDR, 3 μM peptide substrate FAM-P22 (GL Biochem 112393), and 92 μM ATP (Sigma A7699-1G). The assay started with loading RET diluted in kinase reaction buffer to wells, followed by addition of equal volume of 5× compounds for 15-min incubation at the room temperature for pre-treatment. The enzymatic reaction was initiated by addition of mixture of the substrate and ATP prepared in kinase reaction buffer. After incubation at 28° C. for one hour, 25 μl of stopper buffer (a mixture of 100 mM HEPES pH 7.5 buffer, 0.015% Brij-35, 50 mM EDTA and 0.2% of coating reagent 3 (Cliper Lifesciences)). After 30 minutes of incubation at room temperature, the plate was read in a Caliper. Percent of control was calculated as the percentage of compound-treated vs 2% DMSO vehicle-treated. The dose-response curves were generated and the IC50s were calculated by nonlinear sigmoid curve fitting using XLFit.

T1 sequence (P07949 29-1114): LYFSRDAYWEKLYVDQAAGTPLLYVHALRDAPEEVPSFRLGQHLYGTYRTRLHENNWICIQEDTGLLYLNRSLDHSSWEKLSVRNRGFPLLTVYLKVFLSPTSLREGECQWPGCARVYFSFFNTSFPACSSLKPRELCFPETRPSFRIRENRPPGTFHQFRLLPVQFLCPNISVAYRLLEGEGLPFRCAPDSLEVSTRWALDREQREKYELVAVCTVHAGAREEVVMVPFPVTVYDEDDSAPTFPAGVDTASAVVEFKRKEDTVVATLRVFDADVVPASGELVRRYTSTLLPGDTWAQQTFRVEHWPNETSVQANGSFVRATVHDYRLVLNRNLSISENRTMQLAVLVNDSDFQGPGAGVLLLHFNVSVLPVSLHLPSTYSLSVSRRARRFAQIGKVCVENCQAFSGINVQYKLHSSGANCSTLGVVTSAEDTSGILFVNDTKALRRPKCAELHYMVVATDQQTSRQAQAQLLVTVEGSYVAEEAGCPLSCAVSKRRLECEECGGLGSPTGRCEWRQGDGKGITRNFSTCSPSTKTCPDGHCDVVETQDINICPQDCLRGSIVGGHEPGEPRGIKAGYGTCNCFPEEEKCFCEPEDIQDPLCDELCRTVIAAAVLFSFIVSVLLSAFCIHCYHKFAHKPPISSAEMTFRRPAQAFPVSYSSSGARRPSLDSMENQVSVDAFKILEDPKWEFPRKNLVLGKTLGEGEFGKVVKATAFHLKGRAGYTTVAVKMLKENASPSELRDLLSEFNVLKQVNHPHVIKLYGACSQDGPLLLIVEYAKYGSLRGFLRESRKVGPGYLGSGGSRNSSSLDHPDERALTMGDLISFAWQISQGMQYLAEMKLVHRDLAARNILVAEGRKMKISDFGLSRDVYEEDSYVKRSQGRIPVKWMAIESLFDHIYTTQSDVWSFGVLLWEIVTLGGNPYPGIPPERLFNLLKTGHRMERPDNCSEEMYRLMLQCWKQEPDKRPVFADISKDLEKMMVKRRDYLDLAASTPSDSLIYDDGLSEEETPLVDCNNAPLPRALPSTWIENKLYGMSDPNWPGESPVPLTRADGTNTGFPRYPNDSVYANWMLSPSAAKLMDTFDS
T2 sequence (P35968 20-1356): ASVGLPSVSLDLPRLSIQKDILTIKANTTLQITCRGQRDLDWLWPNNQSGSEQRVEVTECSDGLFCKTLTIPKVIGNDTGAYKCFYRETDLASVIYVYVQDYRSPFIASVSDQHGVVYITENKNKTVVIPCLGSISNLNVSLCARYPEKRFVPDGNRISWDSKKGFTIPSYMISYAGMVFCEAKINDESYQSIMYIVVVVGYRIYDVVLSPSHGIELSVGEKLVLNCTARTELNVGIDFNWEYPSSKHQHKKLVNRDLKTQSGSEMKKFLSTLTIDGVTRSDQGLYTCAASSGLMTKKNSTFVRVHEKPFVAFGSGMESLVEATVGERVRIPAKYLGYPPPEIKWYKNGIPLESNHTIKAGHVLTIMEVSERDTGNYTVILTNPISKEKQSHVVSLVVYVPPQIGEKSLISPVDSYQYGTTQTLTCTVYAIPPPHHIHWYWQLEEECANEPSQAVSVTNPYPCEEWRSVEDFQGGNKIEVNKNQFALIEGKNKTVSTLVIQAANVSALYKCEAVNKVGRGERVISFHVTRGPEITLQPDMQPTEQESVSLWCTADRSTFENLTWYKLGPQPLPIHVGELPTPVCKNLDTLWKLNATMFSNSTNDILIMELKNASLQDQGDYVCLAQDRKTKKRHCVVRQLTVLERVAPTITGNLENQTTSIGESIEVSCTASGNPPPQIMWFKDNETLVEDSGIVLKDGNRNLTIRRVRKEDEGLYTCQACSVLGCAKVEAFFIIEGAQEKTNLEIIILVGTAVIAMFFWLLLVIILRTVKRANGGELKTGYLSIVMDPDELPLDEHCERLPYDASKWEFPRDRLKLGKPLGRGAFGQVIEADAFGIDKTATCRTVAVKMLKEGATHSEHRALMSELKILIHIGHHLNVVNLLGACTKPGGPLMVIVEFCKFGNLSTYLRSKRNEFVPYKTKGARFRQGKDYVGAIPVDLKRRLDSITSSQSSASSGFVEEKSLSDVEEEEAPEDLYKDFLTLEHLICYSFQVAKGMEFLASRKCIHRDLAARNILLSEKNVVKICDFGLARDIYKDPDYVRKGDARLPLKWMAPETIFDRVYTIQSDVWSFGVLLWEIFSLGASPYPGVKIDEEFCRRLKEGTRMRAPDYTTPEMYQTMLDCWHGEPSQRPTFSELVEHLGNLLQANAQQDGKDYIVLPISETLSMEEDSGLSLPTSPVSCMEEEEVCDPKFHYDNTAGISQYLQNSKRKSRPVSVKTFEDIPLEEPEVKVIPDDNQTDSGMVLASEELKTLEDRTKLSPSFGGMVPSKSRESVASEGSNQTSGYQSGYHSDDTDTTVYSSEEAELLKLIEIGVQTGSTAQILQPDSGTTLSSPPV

With `COc1ccc(CN2C3CC2CN(c2ccc(-c4cc(-c5ccc(C(C)(C)NC(C)=O)cn5)cn5ncc(C#N)c45)cn2)C3)cn1` [Example 12, N-(2-(6-(3-cyano-4-(6-(6-((6-methoxypyridin-3-yl)methyl)-3,6-diazabicyclo[3.1.1]heptan-3-yl)pyridin-3-yl)pyrazolo[1,5-a]pyridin-6-yl)pyridin-3-yl)propan-2-yl)acetamide] the IC50 (human RET kinase) was 0.4 nM and the IC50 (human KDR kinase) was 2 nM.
